For this experiment, the target named is T1, recombinant full-length human prolyl endopeptidase (PREP) (Homo sapiens, UniProt P48147).
T1 construct: To recombinant full-length human prolyl endopeptidase (PREP, R&D-Systems, 4308-SE); purchased R&D-Systems 4308-SE
T1 sequence (P48147 1-710): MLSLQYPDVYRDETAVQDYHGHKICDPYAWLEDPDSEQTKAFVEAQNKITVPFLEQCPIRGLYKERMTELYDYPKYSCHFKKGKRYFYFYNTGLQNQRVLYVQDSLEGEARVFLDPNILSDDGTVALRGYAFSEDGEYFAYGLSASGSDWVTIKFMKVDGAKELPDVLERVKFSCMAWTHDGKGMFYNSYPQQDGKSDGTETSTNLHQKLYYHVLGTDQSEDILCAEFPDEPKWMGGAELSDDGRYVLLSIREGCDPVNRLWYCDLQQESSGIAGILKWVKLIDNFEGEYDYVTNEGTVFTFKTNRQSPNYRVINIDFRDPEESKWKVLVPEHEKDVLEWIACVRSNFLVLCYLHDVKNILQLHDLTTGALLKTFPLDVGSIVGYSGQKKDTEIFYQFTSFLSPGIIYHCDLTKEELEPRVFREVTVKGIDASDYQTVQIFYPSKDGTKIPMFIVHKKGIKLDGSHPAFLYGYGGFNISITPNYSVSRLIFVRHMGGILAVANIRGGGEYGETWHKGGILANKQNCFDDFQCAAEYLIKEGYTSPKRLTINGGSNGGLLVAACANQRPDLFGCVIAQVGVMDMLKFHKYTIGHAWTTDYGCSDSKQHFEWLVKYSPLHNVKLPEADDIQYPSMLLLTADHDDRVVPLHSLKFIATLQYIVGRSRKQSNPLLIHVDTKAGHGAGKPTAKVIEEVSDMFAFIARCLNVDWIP
Briefly: Biochemical human prolyl endopeptidase (PREP) assay with fluorescently labelled substrate. The settings on record: substrate Z-Gly-Pro-AMC 50 μM, 32° C., 60 min; some as mean values from multiple independent determinations. In short, it runs like this:
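Initial rates of fluorescence increase from 50 μM Z-Gly-Pro-AMC cleavage (ex 360/em 465 nm, 60 min, 32° C) give percent PREP activity versus no-compound control, and IC50 is interpolated. Enzyme used at 0.4 nM (final, example) in Tris pH 7.5 with EDTA, GSH, BSA and Brij-35; compounds span 1 nM to 30 μM.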
Take `O=C(C1C(C(F)(F)F)CCc2nn(Cc3ncc(Cl)cc3F)c(=O)n21)N1CCC(F)(F)C1` (racemic) [Example 296, (5RS,6RS)-2-[(5-Chloro-3-fluoropyridin-2-yl)methyl]-5-[(3,3-difluoropyrrolidin-1-yl)carbonyl]-6-(trifluoromethyl)-5,6,7,8-tetrahydro[1,2,4]triazolo[4,3-a]pyridin-3(2H)-one]: the half-inhibitory concentration (IC50) was 180 nM.
Then `O=C(C1C(C(F)(F)F)CCc2nn(Cc3ccc(Cl)cn3)c(=O)n21)N1CC[C@H](F)C1` (mixture of isomers) [Example 298, (5RS,6RS)-2-[(5-Chloropyridin-2-yl)methyl]-5-{[(3S)-3-fluoropyrrolidin-1-yl]carbonyl}-6-(trifluoromethyl)-5,6,7,8-tetrahydro[1,2,4]triazolo[4,3-a]pyridin-3(2H)-one], with 24 nM; and `O=C(C1C(C(F)(F)F)CCc2nn(Cc3ccc(Cl)cn3)c(=O)n21)N1C[C@@H](F)[C@@H](F)C1` (mixture of isomers) [Example 300, (5RS,6RS)-2-[(5-Chloropyridin-2-yl)methyl]-5-{[(3R,4S)-3,4-difluoropyrrolidin-1-yl]carbonyl}-6-(trifluoromethyl)-5,6,7,8-tetrahydro[1,2,4]triazolo[4,3-a]pyridin-3(2H)-one], with 19 nM; and `O=C(C1C(C(F)(F)F)CCc2nn(Cc3ccnc(C(F)(F)F)c3F)c(=O)n21)N1CC(F)C1` (racemic) [Example 302, (5RS,6RS)-5-[(3-Fluoroazetidin-1-yl)carbonyl]-2-{[3-fluoro-2-(trifluoromethyl)pyridin-4-yl]methyl}-6-(trifluoromethyl)-5,6,7,8-tetrahydro[1,2,4]triazolo[4,3-a]pyridin-3(2H)-one], with 49.5 nM.
For the compound `O=C(C1C(C(F)(F)F)CCc2nn(Cc3ccc(C(F)(F)F)nc3)c(=O)n21)N1CC(F)C1` (racemic) [Example 304, (5RS,6RS)-5-[(3-Fluoroazetidin-1-yl)carbonyl]-6-(trifluoromethyl)-2-{[6-(trifluoromethyl)pyridin-3-yl]methyl}-5,6,7,8-tetrahydro[1,2,4]triazolo[4,3-a]pyridin-3(2H)-one], the IC50 was determined as 35 nM.
For `O=C(C1C(C(F)(F)F)CCc2nn(Cc3ncc(Cl)cc3Cl)c(=O)n21)N1CC(F)C1` (racemic) [Example 306, (5RS,6RS)-2-[(3,5-Dichloropyridin-2-yl)methyl]-5-[(3-fluoroazetidin-1-yl)carbonyl]-6-(trifluoromethyl)-5,6,7,8-tetrahydro[1,2,4]triazolo[4,3-a]pyridin-3(2H)-one], the IC50 was 215 nM.
Then `O=C(C1C(C(F)(F)F)CCc2nn(Cc3ncc(Cl)cc3F)c(=O)n21)N1CC(F)C1` (racemic) [Example 308, (5RS,6RS)-2-[(5-Chloro-3-fluoropyridin-2-yl)methyl]-5-[(3-fluoroazetidin-1-yl)carbonyl]-6-(trifluoromethyl)-5,6,7,8-tetrahydro[1,2,4]triazolo[4,3-a]pyridin-3(2H)-one], with 125 nM.
In the case of `O=C(C1C(C(F)(F)F)CCc2nn(Cc3ccc(Cl)cn3)c(=O)n21)N1CC(F)C1` (racemic) [Example 310, (5RS,6RS)-2-[(5-Chloropyridin-2-yl)methyl]-5-[(3-fluoroazetidin-1-yl)carbonyl]-6-(trifluoromethyl)-5,6,7,8-tetrahydro[1,2,4]triazolo[4,3-a]pyridin-3(2H)-one] it was 15 nM; in that of `O=C(C1CC(C(F)(F)F)Cc2nn(Cc3ccc(C(F)(F)F)nc3)c(=O)n21)N1CCC(F)(F)C1` (racemic) [Example 312, (5RS,7RS)-5-[(3,3-Difluoropyrrolidin-1-yl)carbonyl]-7-(trifluoromethyl)-2-{[6-(trifluoromethyl)pyridin-3-yl]methyl}-5,6,7,8-tetrahydro[1,2,4]triazolo[4,3-a]pyridin-3(2H)-one], 8.9 nM; in that of `O=C(C1CC(C(F)(F)F)Cc2nn(Cc3ccc(Cl)cn3)c(=O)n21)N1CC[C@H](F)C1` (mixture of isomers) [Example 314, (5RS,7RS)-2-[(5-Chloropyridin-2-yl)methyl]-5-{[(3S)-3-fluoropyrrolidin-1-yl]carbonyl}-7-(trifluoromethyl)-5,6,7,8-tetrahydro[1,2,4]triazolo[4,3-a]pyridin-3(2H)-one], 1.4 nM.
Turning to `O=C(C1CC(C(F)(F)F)Cc2nn(Cc3cncc(Cl)c3)c(=O)n21)N1CC[C@H](F)C1` (mixture of isomers) [Example 316, (5RS,7RS)-2-[(5-Chloropyridin-3-yl)methyl]-5-{[(3S)-3-fluoropyrrolidin-1-yl]carbonyl}-7-(trifluoromethyl)-5,6,7,8-tetrahydro[1,2,4]triazolo[4,3-a]pyridin-3(2H)-one], the IC50 was determined as 2.6 nM.
In the case of `CC1CCC(C(=O)N2C[C@@H](F)[C@@H](F)C2)n2c1nn(Cc1ccc(F)c(Cl)c1)c2=O` (mixture of isomers) [Example 319, (5RS,8RS)-2-(3-Chloro-4-fluorobenzyl)-5-{[(3R,4S)-3,4-difluoropyrrolidin-1-yl]carbonyl}-8-methyl-5,6,7,8-tetrahydro[1,2,4]triazolo[4,3-a]pyridin-3(2H)-one] it was 0.63 nM; in that of `CC1CCC(C(=O)N2CC[C@H](F)C2)n2c1nn(Cc1ccc(F)c(Cl)c1)c2=O` (mixture of isomers) [Example 320, (5RS,8RS)-2-(3-Chloro-4-fluorobenzyl)-5-{[(3S)-3-fluoropyrrolidin-1-yl]carbonyl}-8-methyl-5,6,7,8-tetrahydro[1,2,4]triazolo[4,3-a]pyridin-3(2H)-one], 0.69 nM; in that of `CC1CCC(C(=O)N2CC(F)C2)n2c1nn(Cc1ccc(F)c(Cl)c1)c2=O` (racemic) [Example 321, (5RS,8RS)-2-(3-Chloro-4-fluorobenzyl)-5-[(3-fluoroazetidin-1-yl)carbonyl]-8-methyl-5,6,7,8-tetrahydro[1,2,4]triazolo[4,3-a]pyridin-3(2H)-one], 0.93 nM.
Then `CC1CCC(C(=O)N2C[C@@H](F)[C@@H](F)C2)n2c1nn(Cc1ccnc(C(F)(F)F)c1F)c2=O` (mixture of isomers) [Example 322, (5RS,8RS)-5-{[(3R,4S)-3,4-Difluoropyrrolidin-1-yl]carbonyl}-2-{[3-fluoro-2-(trifluoromethyl)pyridin-4-yl]methyl}-8-methyl-5,6,7,8-tetrahydro[1,2,4]triazolo[4,3-a]pyridin-3(2H)-one], with 0.94 nM.
In the case of `CC1CCC(C(=O)N2CCC(F)(F)C2)n2c1nn(Cc1ccc(F)c(Cl)c1)c2=O` (racemic) [Example 323, (5RS,8RS)-2-(3-Chloro-4-fluorobenzyl)-5-[(3,3-difluoropyrrolidin-1-yl)carbonyl]-8-methyl-5,6,7,8-tetrahydro[1,2,4]triazolo[4,3-a]pyridin-3(2H)-one] it was 0.96 nM.
Turning to `CC1CCC(C(=O)N2C[C@@H](F)[C@@H](F)C2)n2c1nn(Cc1ccc(F)cc1F)c2=O` (mixture of isomers) [Example 324, (5RS,8RS)-2-(2,4-Difluorobenzyl)-5-{[(3R,4S)-3,4-difluoropyrrolidin-1-yl]carbonyl}-8-methyl-5,6,7,8-tetrahydro[1,2,4]triazolo[4,3-a]pyridin-3(2H)-one], the 50% inhibitory concentration (IC50) was determined as 1.2 nM.
On to `CC1CCC(C(=O)N2C[C@@H](F)[C@@H](F)C2)n2c1nn(Cc1ccc(C(F)(F)F)nc1)c2=O` (mixture of isomers) [Example 325, (5RS,8RS)-5-{[(3R,4S)-3,4-Difluoropyrrolidin-1-yl]carbonyl}-8-methyl-2-{[6-(trifluoromethyl)pyridin-3-yl]methyl}-5,6,7,8-tetrahydro[1,2,4]triazolo[4,3-a]pyridin-3(2H)-one], for which the IC50 worked out at 1.5 nM.

In general, IC50 refers to the concentration needed to halve the response being measured.
